Results reported in US6309882A, “Antisense inhibition of replication protein a p70 subunit” (ISIS Pharmaceuticals, Inc., priority 1999, dated 2001).

Test system: Mia Paca II tumors
Assay: Mia Paca II tumors in NMRI nu/nu mice
Assay type: in vivo
Procedure: Delivery of oligonucleotide was continuous for 14 days. The dosage of oligonucleotide was 10 mg/kg/day. Each sample set contained three mice. Tumor volume was measured regularly and after two weeks, the tumors were taken out and weighed.

Substance: ISIS 12790: phosphorothioate oligodeoxynucleotide TGGTCTGCAGTTAGGGTCAG, SEQ ID NO 15, 3'-UTR 2230-2249, non-allele specific (DNA, all phosphorothioate, methylation of C not given here)
- effect on tumor progression (10 mg/kg/day for 14 days): delayed tumor progression over the two week period compared to a saline control
- average final weight of the tumors (after two weeks, 10 mg/kg/day, saline control 297 mg): 161 mg
- Tumor volume (day 0, 10 mg/kg/day osmotic minipump): 134 mm^3
- Tumor volume (day 1, 10 mg/kg/day osmotic minipump): 186 mm^3
- Tumor volume (day 2, 10 mg/kg/day osmotic minipump): 220 mm^3
- Tumor volume (day 6, 10 mg/kg/day osmotic minipump): 252 mm^3
- Tumor volume (day 7, 10 mg/kg/day osmotic minipump): 290 mm^3
- Tumor volume (day 9, 10 mg/kg/day osmotic minipump): 370 mm^3
- Tumor volume (day 13, 10 mg/kg/day osmotic minipump): 358 mm^3
- Tumor volume (day 14, 10 mg/kg/day osmotic minipump): 331 mm^3
- inhibition of tumor growth (two week period, compared to saline control): approximately 40%
